The assay has as its system HIV. In words: MT4 Assay (anti-HIV activity). The assay is classed as cell-based. To be noted: Human immunodeficiency virus 1, 96 h, read-out: HIV MT4 Assay IC50, HTLV-1 transformed cell line MT-4, cell titer glo, 10 point dose response curve. In short, it runs like this: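 MT-4 cells (HTLV-1 transformed) were used for antiviral activity and cytotoxicity, run in parallel, with luminescence read by CellTiter-Glo 96 hours later. Percent inhibition was expressed against the no-compound control. IC50s came from 10-point curves of 3-4-fold serial dilutions spanning >1000-fold.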
On the technique in general: Cellular ATP, detected with luciferase, serves as a proxy for viable cell number.

Structures are written as SMILES.

The term IC50 denotes the concentration needed to halve the response being measured. Turning to `Cn1c(C(OC(C)(C)C)C(=O)O)c(-c2ccc3c(c2Cl)CCCO3)c2ccccc2c1=O` (stereo not drawn) [Example 21, 2-(tert-butoxy)-2-[4-(5-chloro-3,4-dihydro-2H-1-benzopyran-6-yl)-2-methyl-1-oxo-1,2-dihydroisoquinolin-3-yl]acetic acid], the IC50 was 3500 nM.
In the case of `Cc1c(-c2c([C@H](OC(C)(C)C)C(=O)O)n(C)c(=O)c3cc(-c4cn[nH]c4)ccc23)cc(F)c2c1CCCO2` (atropisomer, axis not shown; (M)) [Example 197, (2S)(M)-[(1,1-dimethylethyl)oxy][4-(8-fluoro-5-methyl-3,4-dihydro-2H-chromen-6-yl)-2-methyl-1-oxo-7-(1H-pyrazol-4-yl)-1,2-dihydro-3-isoquinolinyl]ethanoic acid] it was 1460 nM; in that of `CC(=O)N1CCOc2ccc(-c3c(C(OC(C)(C)C)C(=O)O)n(C)c(=O)c4ccccc34)c(Cl)c21` (stereo not drawn) [Example 116, 2-[4-(4-acetyl-5-chloro-3,4-dihydro-2H-1,4-benzoxazin-6-yl)-2-methyl-1-oxo-1,2-dihydroisoquinolin-3-yl]-2-(tert-butoxy)acetic acid], 33200 nM.
The same measure for `Cn1c(C(OC(C)(C)C)C(=O)O)c(-c2ccc3ncsc3c2)c2ccccc2c1=O` (stereo not drawn) [Example 153, 2-(4-(benzo[d]thiazol-6-yl)-2-methyl-1-oxo-1,2-dihydroisoquinolin-3-yl)-2-(tert-butoxy)acetic acid]: 3880 nM; for `Cc1c(-c2c(C(OC(C)(C)C)C(=O)O)n(C)c(=O)c3ccc(F)cc23)cc(F)c2c1CCCO2` (stereo not drawn) [Example 91, 2-(tert-butoxy)-2-[6-fluoro-4-(8-fluoro-5-methyl-3,4-dihydro-2H-1-benzopyran-6-yl)-2-methyl-1-oxo-1,2-dihydroisoquinolin-3-yl]acetic acid]: 440 nM.
The same measure for `Cc1c(-c2c([C@H](OC(C)(C)C)C(=O)O)n(C)c(=O)c3cc(OCc4ccccn4)ccc23)cc(F)c2c1CCCO2` [Example 143, (2S)-2-(tert-butoxy)-2-[4-(8-fluoro-5-methyl-3,4-dihydro-2H-1-benzopyran-6-yl)-2-methyl-1-oxo-7-(pyridin-2-ylmethoxy)-1,2-dihydroisoquinolin-3-yl]acetic acid]: 30 nM; for `Cc1c(-c2c(C(OC(C)(C)C)C(=O)O)n(C)c(=O)c3cc(OCc4ccccc4)ccc23)ccc2c1CCCO2` (stereo not drawn) [Example 88, 2-[7-(benzyloxy)-2-methyl-4-(5-methyl-3,4-dihydro-2H-1-benzopyran-6-yl)-1-oxo-1,2-dihydroisoquinolin-3-yl]-2-(tert-butoxy)acetic acid]: 110 nM; for `Cc1c(-c2c(C(OC(C)(C)C)C(=O)O)n(C)c(=O)c3cc(OCc4ccc(F)cc4)ccc23)cc(F)c2c1CCCO2` (stereo not drawn) [Example 145, 2-(tert-butoxy)-2-[4-(8-fluoro-5-methyl-3,4-dihydro-2H-1-benzopyran-6-yl)-7-[(4-fluorophenyl)methoxy]-2-methyl-1-oxo-1,2-dihydroisoquinolin-3-yl]acetic acid]: 110 nM.
With `Cc1ccc2c(-c3ccc4c(c3C)CCCO4)c([C@H](OC(C)(C)C)C(=O)O)n(C)c(=O)c2c1` [Example 115, (2S)-2-(tert-butoxy)-2-[2,7-dimethyl-4-(5-methyl-3,4-dihydro-2H-1-benzopyran-6-yl)-1-oxo-1,2-dihydroisoquinolin-3-yl]acetic acid], the IC50 worked out at 20 nM.
In the case of `Cc1ccc2c(-c3cc(F)c4c(c3C)CCCO4)c([C@H](OC(C)(C)C)C(=O)O)n(C)c(=O)c2c1` [Example 131, (2S)-2-(tert-butoxy)-2-[4-(8-fluoro-5-methyl-3,4-dihydro-2H-1-benzopyran-6-yl)-2,7-dimethyl-1-oxo-1,2-dihydroisoquinolin-3-yl]acetic acid] it was 20 nM; in that of `COc1cc2c(=O)n(C)c(C(OC(C)(C)C)C(=O)O)c(-c3ccc4c(c3C)CCCO4)c2cc1Cl` (stereo not drawn) [Example 130, 2-(tert-butoxy)-2-[6-chloro-7-methoxy-2-methyl-4-(5-methyl-3,4-dihydro-2H-1-benzopyran-6-yl)-1-oxo-1,2-dihydroisoquinolin-3-yl]acetic acid], 3750 nM; in that of `Cn1c(C(OC(C)(C)C)C(=O)O)c(-c2ccc3c(c2)CCCO3)c2ccc(F)cc2c1=O` (stereo not drawn) [Example 57, 2-(tert-butoxy)-2-[4-(3,4-dihydro-2H-1-benzopyran-6-yl)-7-fluoro-2-methyl-1-oxo-1,2-dihydroisoquinolin-3-yl]acetic acid], 1650 nM.
As to `Cc1ccc(-c2c(C(OC(C)(C)C)C(=O)O)n(C)c(=O)c3ccccc23)c(C)c1` (stereo not drawn) [Example 34, 2-(tert-butoxy)-2-[4-(2,4-dimethylphenyl)-2-methyl-1-oxo-1,2-dihydroisoquinolin-3-yl]acetic acid], the IC50 is 410 nM.
In the case of `Cn1c(C(OC(C)(C)C)C(=O)O)c(-c2ccc3c(c2)CCO3)c2ccccc2c1=O` (stereo not drawn) [Example 63, 2-(tert-butoxy)-2-[4-(2,3-dihydro-1-benzofuran-5-yl)-2-methyl-1-oxo-1,2-dihydroisoquinolin-3-yl]acetic acid] it was 1690 nM.
For `Cn1c(C(OC(C)(C)C)C(=O)O)c(-c2ccc3c(c2)CCCO3)c2cc(Cl)ccc2c1=O` (stereo not drawn) [Example 26, 2-(tert-butoxy)-2-[6-chloro-4-(3,4-dihydro-2H-1-benzopyran-6-yl)-2-methyl-1-oxo-1,2-dihydroisoquinolin-3-yl]acetic acid], the IC50 turned out to be 1900 nM.
In the case of `Cc1c(-c2c([C@H](OC(C)(C)C)C(=O)O)n(C)c(=O)c3cc(-c4ccccc4)ccc23)cc(F)c2c1CCCO2` (atropisomer, axis not shown; (M)) [Example 204, (2S)(M)-[(1,1-dimethylethyl)oxy][4-(8-fluoro-5-methyl-3,4-dihydro-2H-chromen-6-yl)-2-methyl-1-oxo-7-phenyl-1,2-dihydro-3-isoquinolinyl]ethanoic acid] it was 30 nM.
For `COc1ccc(-c2c(C(OC(C)(C)C)C(=O)O)n(C)c(=O)c3ccccc23)cc1C` (stereo not drawn) [Example 54, 2-(tert-butoxy)-2-[4-(4-methoxy-3-methylphenyl)-2-methyl-1-oxo-1,2-dihydroisoquinolin-3-yl]acetic acid], the half-inhibitory concentration (IC50) is 12300 nM.
The same measure for `Cc1occc1-c1c(C(OC(C)(C)C)C(=O)O)n(C)c(=O)c2ccccc12` (stereo not drawn) [Example 155, [(1,1-dimethylethyl)oxy][2-methyl-4-(2-methyl-3-furanyl)-1-oxo-1,2-dihydro-3-isoquinolinyl]acetic]: 13300 nM; for `Cn1c(C(OC(C)(C)C)C(=O)O)c(-c2ccc(F)cc2F)c2ccccc2c1=O` (stereo not drawn) [Example 46, 2-(tert-butoxy)-2-[4-(2,4-difluorophenyl)-2-methyl-1-oxo-1,2-dihydroisoquinolin-3-yl]acetic acid]: 1570 nM.
In the case of `Cc1ccc(-c2c(C(OC(C)(C)C)C(=O)O)n(C)c(=O)c3cc(-c4cnn(C)c4)ccc23)cc1C` (stereo not drawn) [Example 192, [(1,1-dimethylethyl)oxy][4-(3,4-dimethylphenyl)-2-methyl-7-(1-methyl-1H-pyrazol-4-yl)-1-oxo-1,2-dihydro-3-isoquinolinyl]acetic acid] it was 350 nM.
`CC(=O)NCc1ccc2c(-c3ccc(C)c(C)c3)c(C(OC(C)(C)C)C(=O)O)n(C)c(=O)c2c1` (stereo not drawn) [Example 184, 2-(7-(acetamidomethyl)-4-(3,4-dimethylphenyl)-2-methyl-1-oxo-1,2-dihydroisoquinolin-3-yl)-2-(tert-butoxy)acetic acid]: the IC50 turned out to be 31400 nM.

Source of the values: US9029391B2 (priority 2011, dated 2015).
